Source: paper PMC7064328 (Environmental Health Perspectives, 2020)

Experiments:
maternal liver [1] = experiment: Maternal liver histopathology (H&E); assay type: in vivo, mouse (CD-1); settings: for CA, any severity: % / CA, any severity: N / CA, marked: % / CA, marked: N / CA, minimal to mild: % / CA, minimal to mild: N / CA, moderate: % / CA, moderate: N / Focal regions of classic necrosis: % / Focal regions of classic necrosis: N / Increase in cell death: % / Increase in cell death: N / Increase in mitotic figures: % / Increase in mitotic figures: N / Vacuolation, any severity: % / Vacuolation, any severity: N / Vacuolation, mild: % / Vacuolation, mild: N / Vacuolation, minimal: % / Vacuolation, minimal: N / Vacuolation, moderate: % / Vacuolation, moderate: N: maternal liver
From the text: From each uterus, first, viable embryos and their matched placentas were collected in succession within a horn and immediately snap frozen ( n=2–5 per litter ), and subsequent embryos were collected for growth measurements ( n=2–11 per litter ). Additional placentas were collected and placed in 4% paraformaldehyde (PFA) for histological analysis (Block 2 only). Amniotic fluid was collected by needle aspiration from litters euthanized at E11.5 and snap frozen in liquid nitrogen. Embryo livers were collected from litters euthanized at E17.5 and snap frozen in liquid nitrogen. Dam livers were weighed, a portion of the left lateral lobe was placed in 4% PFA for histology, and another portion of the same lobe was snap frozen in liquid nitrogen. A third liver section was obtained from Block 2 dams and fixed in McDowell and Trump’s fixative for electron microscopy (EM). Gross lesions were collected when observed and placed in 4% PFA for histology. Dam kidneys were removed, a cross section was prepared from the right kidney, a longitudinal section was prepared from the left kidney, and both sections were fixed in 4% PFA for histological analysis.
Dam livers, kidneys, and placentas were trimmed and embedded by the NIEHS Mouse Embryo Phenotyping Core. Tissues collected at necropsy were fixed in 4% PFA for 72 h and paraffin embedded, and 5-μm sections were prepared and stained with hematoxylin and eosin (H&E). Pathology was evaluated and a pathology review conducted by S.A.E. Diplomate American College of Veterinary Pathologists (DACVP). Pathology reviews were conducted as an informed approach analysis [e.g., nonblinded analysis; see Sills et al. ([2019])]. Select tissue slides were scanned using the AT2 Scanner (Aperio). Images were then captured for publication using the ImageScope software; version 12.3.0.5056 (Aperio). Serum and urine obtained from dams in Block 2 were analyzed using the AU480 clinical chemistry analyzer (Beckman Coulter Inc.). Reagents and calibration standards used to measure alkaline phosphatase (ALP), alanine aminotransferase (ALT), aspartate aminotransferase (AST), blood urea nitrogen (BUN), serum creatinine, urine creatinine, glucose (Glu), total protein (TP), triglyceride (Trig), high-density lipoprotein (HDL), cholesterol (Chol), and albumin (ALB) were purchased from Beckman Coulter Inc. Reagents for sorbitol dehydrogenase (SDH), total bile acid (TBA), and micro-TP were purchased from Sekisui Diagnostics. The reagent used to measure low-density lipoprotein (LDL) was purchased form Diazyme Laboratories.

maternal liver [2] = experiment: Transmission electron microscopy of dam liver; assay type: in vivo, mouse (CD-1); settings: E17.5
From the text: Block 2 dam liver portions stored in McDowell and Trump’s fixative ([McDowell and Trump 1976]) were processed using a Leica EM TP processor. Briefly, samples were rinsed with buffer, postfixed in 1% osmium tetroxide in 0.1-M phosphate buffer, rinsed in distilled water, dehydrated, and embedded in Ply/Bed® 812 (Polysciences, Inc.) epoxide resin. Blocks were trimmed, and semithin sections ( ∼0.5μm ) were stained with 1% toluidine blue (Poly-scientific R&D Corp.) O in 1% sodium borate to ascertain areas of interest. Ultrathin sections ( […] ) were cut from areas of interest and placed on 200-mesh copper grids and stained with uranyl acetate and lead citrate, and digital images were captured using an Orius® SC1000 side mount camera (Gatan) attached to a Techani T12 transmission electron microscope (TEM) (FEI Company). In general, peroxisomes were smaller than mitochondria and round with a dark, electron-dense, granular matrix and surrounded by a single membrane. […] Samples were analyzed by R.D.K., Ph.D.

Compound: O=C(O)C(F)(F)C(F)(F)C(F)(F)C(F)(F)C(F)(F)C(F)(F)C(F)(F)F [PFOA, Perfluorooctanoic acid]
- Incidence of livers with adverse outcomes including cytoplasmic alteration (maternal liver [1]; all dose groups, E11.5 and E17.5): 100%
- CA, any severity: % (maternal liver [1]; E11.5, 1 mg/kg/d): 100%
- CA, any severity: N (maternal liver [1]; E11.5, 1 mg/kg/d): 5
- CA, marked: % (maternal liver [1]; E11.5, 1 mg/kg/d): 0%
- CA, marked: N (maternal liver [1]; E11.5, 1 mg/kg/d): 0
- CA, minimal to mild: % (maternal liver [1]; E11.5, 1 mg/kg/d): 100%
- CA, minimal to mild: N (maternal liver [1]; E11.5, 1 mg/kg/d): 5
- CA, moderate: % (maternal liver [1]; E11.5, 1 mg/kg/d): 0%
- CA, moderate: N (maternal liver [1]; E11.5, 1 mg/kg/d): 0
- Focal regions of classic necrosis: % (maternal liver [1]; E11.5, 1 mg/kg/d): 0%
- Focal regions of classic necrosis: N (maternal liver [1]; E11.5, 1 mg/kg/d): 0
- Increase in cell death: % (maternal liver [1]; E11.5, 1 mg/kg/d): 20%
- Increase in cell death: N (maternal liver [1]; E11.5, 1 mg/kg/d): 1
- Increase in mitotic figures: % (maternal liver [1]; E11.5, 1 mg/kg/d): 40%
- Increase in mitotic figures: N (maternal liver [1]; E11.5, 1 mg/kg/d): 2
- Vacuolation, any severity: % (maternal liver [1]; E11.5, 1 mg/kg/d): 0%
- Vacuolation, any severity: N (maternal liver [1]; E11.5, 1 mg/kg/d): 0
- Vacuolation, mild: % (maternal liver [1]; E11.5, 1 mg/kg/d): 0%
- Vacuolation, mild: N (maternal liver [1]; E11.5, 1 mg/kg/d): 0
- Vacuolation, minimal: % (maternal liver [1]; E11.5, 1 mg/kg/d): 0%
- Vacuolation, minimal: N (maternal liver [1]; E11.5, 1 mg/kg/d): 0
- Vacuolation, moderate: % (maternal liver [1]; E11.5, 1 mg/kg/d): 0%
- Vacuolation, moderate: N (maternal liver [1]; E11.5, 1 mg/kg/d): 0
- CA, any severity: % (maternal liver [1]; E11.5, 5 mg/kg/d): 100%
- CA, any severity: N (maternal liver [1]; E11.5, 5 mg/kg/d): 5
- CA, marked: % (maternal liver [1]; E11.5, 5 mg/kg/d): 100%
- CA, marked: N (maternal liver [1]; E11.5, 5 mg/kg/d): 5
- CA, minimal to mild: % (maternal liver [1]; E11.5, 5 mg/kg/d): 0%
- CA, minimal to mild: N (maternal liver [1]; E11.5, 5 mg/kg/d): 0
- CA, moderate: % (maternal liver [1]; E11.5, 5 mg/kg/d): 0%
- CA, moderate: N (maternal liver [1]; E11.5, 5 mg/kg/d): 0
- Focal regions of classic necrosis: % (maternal liver [1]; E11.5, 5 mg/kg/d): 40%
- Focal regions of classic necrosis: N (maternal liver [1]; E11.5, 5 mg/kg/d): 2
- Increase in cell death: % (maternal liver [1]; E11.5, 5 mg/kg/d): 60%
- Increase in cell death: N (maternal liver [1]; E11.5, 5 mg/kg/d): 3
- Increase in mitotic figures: % (maternal liver [1]; E11.5, 5 mg/kg/d): 100%
- Increase in mitotic figures: N (maternal liver [1]; E11.5, 5 mg/kg/d): 5
- Vacuolation, any severity: % (maternal liver [1]; E11.5, 5 mg/kg/d): 100%
- Vacuolation, any severity: N (maternal liver [1]; E11.5, 5 mg/kg/d): 5
- Vacuolation, mild: % (maternal liver [1]; E11.5, 5 mg/kg/d): 100%
- Vacuolation, mild: N (maternal liver [1]; E11.5, 5 mg/kg/d): 5
- Vacuolation, minimal: % (maternal liver [1]; E11.5, 5 mg/kg/d): 0%
- Vacuolation, minimal: N (maternal liver [1]; E11.5, 5 mg/kg/d): 0
- Vacuolation, moderate: % (maternal liver [1]; E11.5, 5 mg/kg/d): 0%
- Vacuolation, moderate: N (maternal liver [1]; E11.5, 5 mg/kg/d): 0
- CA, any severity: % (maternal liver [1]; E17.5, 1 mg/kg/d): 100%
- CA, any severity: N (maternal liver [1]; E17.5, 1 mg/kg/d): 5
- CA, marked: % (maternal liver [1]; E17.5, 1 mg/kg/d): 0%
- CA, marked: N (maternal liver [1]; E17.5, 1 mg/kg/d): 0
- CA, minimal to mild: % (maternal liver [1]; E17.5, 1 mg/kg/d): 0%
- CA, minimal to mild: N (maternal liver [1]; E17.5, 1 mg/kg/d): 0
- CA, moderate: % (maternal liver [1]; E17.5, 1 mg/kg/d): 100%
- CA, moderate: N (maternal liver [1]; E17.5, 1 mg/kg/d): 5
- Focal regions of classic necrosis: % (maternal liver [1]; E17.5, 1 mg/kg/d): 0%
- Focal regions of classic necrosis: N (maternal liver [1]; E17.5, 1 mg/kg/d): 0
- Increase in cell death: % (maternal liver [1]; E17.5, 1 mg/kg/d): 100%
- Increase in cell death: N (maternal liver [1]; E17.5, 1 mg/kg/d): 5
- Increase in mitotic figures: % (maternal liver [1]; E17.5, 1 mg/kg/d): 0%
- Increase in mitotic figures: N (maternal liver [1]; E17.5, 1 mg/kg/d): 0
- Vacuolation, any severity: % (maternal liver [1]; E17.5, 1 mg/kg/d): 0%
- Vacuolation, any severity: N (maternal liver [1]; E17.5, 1 mg/kg/d): 0
- Vacuolation, mild: % (maternal liver [1]; E17.5, 1 mg/kg/d): 0%
- Vacuolation, mild: N (maternal liver [1]; E17.5, 1 mg/kg/d): 0
- Vacuolation, minimal: % (maternal liver [1]; E17.5, 1 mg/kg/d): 0%
- Vacuolation, minimal: N (maternal liver [1]; E17.5, 1 mg/kg/d): 0
- Vacuolation, moderate: % (maternal liver [1]; E17.5, 1 mg/kg/d): 0%
- Vacuolation, moderate: N (maternal liver [1]; E17.5, 1 mg/kg/d): 0
- CA, any severity: % (maternal liver [1]; E17.5, 5 mg/kg/d): 100%
- CA, any severity: N (maternal liver [1]; E17.5, 5 mg/kg/d): 6
- CA, marked: % (maternal liver [1]; E17.5, 5 mg/kg/d): 100%
- CA, marked: N (maternal liver [1]; E17.5, 5 mg/kg/d): 6
- CA, minimal to mild: % (maternal liver [1]; E17.5, 5 mg/kg/d): 0%
- CA, minimal to mild: N (maternal liver [1]; E17.5, 5 mg/kg/d): 0
- CA, moderate: % (maternal liver [1]; E17.5, 5 mg/kg/d): 0%
- CA, moderate: N (maternal liver [1]; E17.5, 5 mg/kg/d): 0
- Focal regions of classic necrosis: % (maternal liver [1]; E17.5, 5 mg/kg/d): 0%
- Focal regions of classic necrosis: N (maternal liver [1]; E17.5, 5 mg/kg/d): 0
- Increase in cell death: % (maternal liver [1]; E17.5, 5 mg/kg/d): 100%
- Increase in cell death: N (maternal liver [1]; E17.5, 5 mg/kg/d): 6
- Increase in mitotic figures: % (maternal liver [1]; E17.5, 5 mg/kg/d): 0%
- Increase in mitotic figures: N (maternal liver [1]; E17.5, 5 mg/kg/d): 0
- Vacuolation, any severity: % (maternal liver [1]; E17.5, 5 mg/kg/d): 100%
- Vacuolation, any severity: N (maternal liver [1]; E17.5, 5 mg/kg/d): 6
- Vacuolation, mild: % (maternal liver [1]; E17.5, 5 mg/kg/d): 0%
- Vacuolation, mild: N (maternal liver [1]; E17.5, 5 mg/kg/d): 0
- Vacuolation, minimal: % (maternal liver [1]; E17.5, 5 mg/kg/d): 0%
- Vacuolation, minimal: N (maternal liver [1]; E17.5, 5 mg/kg/d): 0
- Vacuolation, moderate: % (maternal liver [1]; E17.5, 5 mg/kg/d): 100%
- Vacuolation, moderate: N (maternal liver [1]; E17.5, 5 mg/kg/d): 6
- Liver ultrastructure (TEM) (maternal liver [2]; 1 mg/kg/d): enlarged hepatocytes with increased cytoplasmic organelles consistent with mitochondria and peroxisomes, evenly dispersed glycogen, and small vacuoles in the centrilobular regions
- Liver ultrastructure (TEM) (maternal liver [2]; 5 mg/kg/d): abnormal ultrastructure
